Data published in patent US20060281110A1, “Methods to identify antimicrobial compounds that interrupt ribosome biogenesis” (MICHIGAN STATE UNIVERSITY, priority 2005, published 2006).

Columns and labels:
50S subunit = conditions: incubated 10 minutes at 37° C.; 10-25% sucrose gradient; FIG. 16
Procedure: (§1) The data was collected from 12% SDS-PAGE electrophoresis and blotted to a nylon membrane using standard Western Blot analysis. Incubations using rabbit polyclonal YlqF antibody was followed by horseradish peroxidase-conjugated goat anti-rabbit antibody and Western Lightning® (PerkinElmer) chemiluminescent detection. Purified YlqF-His6 was added as a comparative marker.
(§2) A B. subtilis strain was constructed that expresses a YlqF-His6 fusion protein as the only functional YlqF copy in the cell. […] The YlqF-His6 fusion protein was purified and tested for association with purified 45S intermediates and mature 50S subunits. YlqF-His6 and either the 45S intermediate or 50S subunits were mixed and incubated for 10 minutes at 37° C. The mixtures were then fractionated on 10-25% sucrose gradients and individual fractions corresponding to the 45S and 50S peaks were collected. […] Although it is not necessary to understand the mechanism of an invention, it is believed that YlqF functions as a factor involved in the biogenesis of the 50S subunit.

45S intermediate = assay: In vitro association of YlqF-His6 with ribosomal particles (sucrose gradient, Western blot); type: binding, B. subtilis; conditions: incubated 10 minutes at 37° C.; 10-25% sucrose gradient; FIG. 16
Procedure: as §1, §2

YlqF-His6: purified His6 fusion to the C-terminus of B. subtilis GTPase YlqF
binding to mature 50S subunit (50S subunit): not the 50S subunit
binding to 45S intermediate (45S intermediate): able to bind the 45S intermediate
